Data reported in ChEMBL document CHEMBL1201862, “PubChem BioAssay data set” (2004).
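Interpolation was linear, between the two tested concentrations surrounding the appropriate level; five concentrations were tested over 48 hours in 96-well plates. At the GI50, growth is halved.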 Calls of active or inactive are those of the source. Rule as the data show it: active = GI50 up to about 1.1 µM and inactive = higher.

Assays:
Assay in all cases: NCI-60 cell line screen, 48 h
786-0 = tested on: 786-0
A498 = tested on: A498
A549 = tested on: A549
ACHN = tested on: ACHN
BT-549 = tested on: BT-549
CAKI-1 = tested on: CAKI-1
CCRF-CEM = tested on: CCRF-CEM
COLO 205 = tested on: COLO 205
DU-145 = tested on: DU-145
EKVX = tested on: EKVX
HCC 2998 = tested on: HCC 2998
HCT-116 = tested on: HCT-116
HCT-15 = tested on: HCT-15
HL-60 = tested on: HL-60
HOP-62 = tested on: HOP-62
HOP-92 = tested on: HOP-92
HT-29 = tested on: HT-29
Hs-578T = tested on: Hs-578T
IGROV-1 = tested on: IGROV-1
K562 = tested on: K562
LOX IMVI = tested on: LOX IMVI
M14 = tested on: M14
MCF7 = tested on: MCF7
MDA-MB-231 = tested on: MDA-MB-231
MDA-MB-435 = tested on: MDA-MB-435
MDA-N = tested on: MDA-N
MOLT-4 = tested on: MOLT-4
NCI-H226 = tested on: NCI-H226
NCI-H23 = tested on: NCI-H23
NCI-H460 = tested on: NCI-H460
NCI-H522 = tested on: NCI-H522
NCI/ADR-RES = tested on: NCI/ADR-RES
OVCAR-3 = tested on: OVCAR-3
OVCAR-4 = tested on: OVCAR-4
OVCAR-5 = tested on: OVCAR-5
OVCAR-8 = tested on: OVCAR-8
PC-3 = tested on: PC-3
RPMI-8226 = tested on: RPMI-8226
RXF 393 = tested on: RXF 393
SF-268 = tested on: SF-268
SF-295 = tested on: SF-295
SF-539 = tested on: SF-539
SK-MEL-28 = tested on: SK-MEL-28
SK-MEL-2 = tested on: SK-MEL-2
SK-MEL-5 = tested on: SK-MEL-5
SN12C = tested on: SN12C
SNB-19 = tested on: SNB-19
SR = tested on: SR
SW-620 = tested on: SW-620
T47D = tested on: T47D
TK-10 = tested on: TK-10
U-251 = tested on: U-251
UACC-257 = tested on: UACC-257
UACC-62 = tested on: UACC-62
UO-31 = tested on: UO-31
KM12 = tested on: KM12
Malme-3M = tested on: Malme-3M
SK-OV-3 = tested on: SK-OV-3
SNB-75 = tested on: SNB-75

CCOC(=O)N1CCNCCN(C(=O)OCC)CCNCC1
GI50 (786-0): > 100 µM (inactive)
GI50 (A498): > 100 µM (inactive)
GI50 (A549): > 100 µM (inactive)
GI50 (ACHN): > 100 µM (inactive)
GI50 (BT-549): > 100 µM (inactive)
GI50 (CAKI-1): > 100 µM (inactive)
GI50 (CCRF-CEM): > 100 µM (inactive)
GI50 (COLO 205): > 100 µM (inactive)
GI50 (DU-145): > 100 µM (inactive)
GI50 (EKVX): > 100 µM (inactive)
GI50 (HCC 2998): > 100 µM (inactive)
GI50 (HCT-116): > 100 µM (inactive)
GI50 (HCT-15): > 100 µM
GI50 (HL-60): > 100 µM (inactive)
GI50 (HOP-62): > 100 µM (inactive)
GI50 (HOP-92): > 100 µM (inactive)
GI50 (HT-29): > 100 µM (inactive)
GI50 (Hs-578T): > 100 µM (inactive)
GI50 (IGROV-1): > 100 µM (inactive)
GI50 (K562): > 100 µM (inactive)
GI50 (LOX IMVI): > 100 µM (inactive)
GI50 (M14): > 100 µM (inactive)
GI50 (MCF7): > 100 µM (inactive)
GI50 (MDA-MB-231): > 100 µM (inactive)
GI50 (MDA-MB-435): > 100 µM (inactive)
GI50 (MDA-N): > 100 µM (inactive)
GI50 (MOLT-4): > 100 µM (inactive)
GI50 (NCI-H226): > 100 µM (inactive)
GI50 (NCI-H23): > 100 µM (inactive)
GI50 (NCI-H460): > 100 µM (inactive)
GI50 (NCI-H522): > 100 µM (inactive)
GI50 (NCI/ADR-RES): > 100 µM (inactive)
GI50 (OVCAR-3): > 100 µM (inactive)
GI50 (OVCAR-4): > 100 µM (inactive)
GI50 (OVCAR-5): > 100 µM (inactive)
GI50 (OVCAR-8): > 100 µM (inactive)
GI50 (PC-3): > 100 µM (inactive)
GI50 (RPMI-8226): > 100 µM (inactive)
GI50 (RXF 393): > 100 µM (inactive)
GI50 (SF-268): > 100 µM (inactive)
GI50 (SF-295): > 100 µM (inactive)
GI50 (SF-539): > 100 µM (inactive)
GI50 (SK-MEL-28): > 100 µM (inactive)
GI50 (SK-MEL-2): > 100 µM (inactive)
GI50 (SK-MEL-5): > 100 µM (inactive)
GI50 (SN12C): > 100 µM (inactive)
GI50 (SNB-19): > 100 µM (inactive)
GI50 (SR): > 100 µM (inactive)
GI50 (SW-620): > 100 µM (inactive)
GI50 (T47D): > 100 µM (inactive)
GI50 (TK-10): > 100 µM (inactive)
GI50 (U-251): > 100 µM (inactive)
GI50 (UACC-257): > 100 µM (inactive)
GI50 (UACC-62): > 100 µM (inactive)
GI50 (UO-31): > 100 µM (inactive)

COC(=O)Nc1nc2cc(S(=O)(=O)Nc3ccccn3)ccc2[nH]1
GI50 (786-0): 49.8 µM (inactive)
GI50 (A498): 61.1 µM (inactive)
GI50 (A549): 80.7 µM (inactive)
GI50 (ACHN): 63 µM (inactive)
GI50 (BT-549): 30.9 µM (inactive)
GI50 (CAKI-1): 47 µM (inactive)
GI50 (CCRF-CEM): 26.1 µM (inactive)
GI50 (COLO 205): 32.7 µM (inactive)
GI50 (DU-145): 71.1 µM (inactive)
GI50 (EKVX): > 100 µM (inactive)
GI50 (HCT-116): 49.9 µM (inactive)
GI50 (HCT-15): 19.8 µM
GI50 (HL-60): 10.8 µM (inactive)
GI50 (HOP-62): 73.3 µM (inactive)
GI50 (HOP-92): 30.5 µM (inactive)
GI50 (HT-29): 43.1 µM (inactive)
GI50 (Hs-578T): 35.6 µM (inactive)
GI50 (IGROV-1): 27.9 µM (inactive)
GI50 (K562): 25.7 µM (inactive)
GI50 (KM12): 32.1 µM (inactive)
GI50 (LOX IMVI): 51.8 µM (inactive)
GI50 (M14): 78.9 µM (inactive)
GI50 (MCF7): 28.6 µM (inactive)
GI50 (MDA-MB-231): > 100 µM (inactive)
GI50 (MDA-MB-435): 14.1 µM (inactive)
GI50 (MDA-N): 20.7 µM (inactive)
GI50 (MOLT-4): 25.5 µM (inactive)
GI50 (Malme-3M): 58.5 µM (inactive)
GI50 (NCI-H226): 36.3 µM (inactive)
GI50 (NCI-H23): 50.1 µM (inactive)
GI50 (NCI-H460): 34.6 µM (inactive)
GI50 (NCI-H522): 45.2 µM (inactive)
GI50 (NCI/ADR-RES): 34.1 µM (inactive)
GI50 (OVCAR-3): 32.4 µM (inactive)
GI50 (OVCAR-4): 54.1 µM (inactive)
GI50 (OVCAR-5): > 100 µM (inactive)
GI50 (OVCAR-8): 46.5 µM (inactive)
GI50 (PC-3): 65.8 µM (inactive)
GI50 (RPMI-8226): 14 µM (inactive)
GI50 (RXF 393): 39.6 µM (inactive)
GI50 (SF-268): 72.6 µM (inactive)
GI50 (SF-295): 49.7 µM (inactive)
GI50 (SF-539): 22.7 µM (inactive)
GI50 (SK-MEL-28): 14.4 µM (inactive)
GI50 (SK-MEL-2): > 100 µM (inactive)
GI50 (SK-MEL-5): 42.1 µM (inactive)
GI50 (SK-OV-3): 44.5 µM (inactive)
GI50 (SN12C): 92 µM (inactive)
GI50 (SNB-19): 64.4 µM (inactive)
GI50 (SNB-75): 22.6 µM (inactive)
GI50 (SR): 21.1 µM (inactive)
GI50 (SW-620): 17.1 µM (inactive)
GI50 (T47D): 44.2 µM (inactive)
GI50 (TK-10): 33.3 µM (inactive)
GI50 (U-251): 67.5 µM (inactive)
GI50 (UACC-257): 17.7 µM (inactive)
GI50 (UACC-62): 42.6 µM (inactive)
GI50 (UO-31): 76 µM (inactive)

CC1(C)OC2C(CO)OC(n3ccc(=O)[nH]c3=O)C2O1 (configuration not stated)
GI50 (786-0): > 100 µM (inactive)
GI50 (A498): > 100 µM (inactive)
GI50 (A549): > 100 µM (inactive)
GI50 (ACHN): > 100 µM (inactive)
GI50 (BT-549): > 100 µM (inactive)
GI50 (CAKI-1): > 100 µM (inactive)
GI50 (CCRF-CEM): > 100 µM (inactive)
GI50 (COLO 205): > 100 µM (inactive)
GI50 (DU-145): > 100 µM (inactive)
GI50 (EKVX): > 100 µM (inactive)
GI50 (HCC 2998): > 100 µM (inactive)
GI50 (HCT-116): > 100 µM (inactive)
GI50 (HCT-15): > 100 µM
GI50 (HL-60): > 100 µM (inactive)
GI50 (HOP-62): > 100 µM (inactive)
GI50 (HOP-92): 83.2 µM (inactive)
GI50 (Hs-578T): > 100 µM (inactive)
GI50 (IGROV-1): > 100 µM (inactive)
GI50 (K562): > 100 µM (inactive)
GI50 (LOX IMVI): > 100 µM (inactive)
GI50 (M14): > 100 µM (inactive)
GI50 (MCF7): > 100 µM (inactive)
GI50 (MDA-MB-231): > 100 µM (inactive)
GI50 (MDA-MB-435): > 100 µM (inactive)
GI50 (MDA-N): > 100 µM (inactive)
GI50 (MOLT-4): > 100 µM (inactive)
GI50 (NCI-H226): > 100 µM (inactive)
GI50 (NCI-H23): > 100 µM (inactive)
GI50 (NCI-H460): > 100 µM (inactive)
GI50 (NCI-H522): > 100 µM (inactive)
GI50 (NCI/ADR-RES): > 100 µM (inactive)
GI50 (OVCAR-3): > 100 µM (inactive)
GI50 (OVCAR-5): > 100 µM (inactive)
GI50 (OVCAR-8): > 100 µM (inactive)
GI50 (PC-3): > 100 µM (inactive)
GI50 (RPMI-8226): > 100 µM (inactive)
GI50 (RXF 393): > 100 µM (inactive)
GI50 (SF-268): > 100 µM (inactive)
GI50 (SF-295): > 100 µM (inactive)
GI50 (SF-539): > 100 µM (inactive)
GI50 (SK-MEL-28): > 100 µM (inactive)
GI50 (SK-MEL-2): > 100 µM (inactive)
GI50 (SK-MEL-5): > 100 µM (inactive)
GI50 (SK-OV-3): > 100 µM (inactive)
GI50 (SN12C): > 100 µM (inactive)
GI50 (SNB-19): > 100 µM (inactive)
GI50 (SR): > 100 µM (inactive)
GI50 (SW-620): > 100 µM (inactive)
GI50 (T47D): > 100 µM (inactive)
GI50 (TK-10): > 100 µM (inactive)
GI50 (U-251): > 100 µM (inactive)
GI50 (UACC-257): > 100 µM (inactive)
GI50 (UACC-62): > 100 µM (inactive)
GI50 (UO-31): > 100 µM (inactive)
